Results from US20260078130A1, “NAMPT MODULATORS, PREPARATIONS, AND USES THEREOF” (SIRONAX LTD., priority 2022, published 2026).
Where two headings read alike, the source gives them in different places.

Molecular target: T1, human enzyme NAMPT (full length) (Homo sapiens, UniProt P43490)
T1 construct: human enzyme NAMPT (full length)
Assay: NMN fluorescence biochemical assay (stimulation of NMN synthesis by NAMPT)
Details: for EC50: concentration giving half-maximal activation, read-out: Enzymatic EC50; for Enzymatic Emax: fold change of maximal activation compared to DMSO
Description: Certain compounds described herein were assayed for their ability to stimulate the synthesis of nicotinamide mononucleotide (NMN) by human enzyme NAMPT (full length). The enzymatic assay was performed in a 384-well plate using a TMD buffer (50 mM Tris-HCl, 10 mM MgCl2, 2 mM DTT, pH 7.5). Purified NAMPT (100 nM) was pre-incubated with 0.2 μL. DMSO solution of the test compound (with a series of concentrations) in 10 μL TMD buffer for 15 min at 37° C. The reaction was initiated by adding 10 μL solution of NAM (50 μM), PRPP (100 μM), and ATP (4 mM) in TMD buffer. After 1 h of incubation at 37 T, an aliquot (20 μL) of the NMN-containing sample was sequentially mixed with 5 μL of 20% acetophenone (in DMSO) and 5 μL of 2M KOH. The mixture was placed on ice for 10 min. Next, 22.5 μL of 100% formic acid was added to each sample, vortexed, and then incubated at 37° C. for 20 min. Fluorescence (Ex/Em=382/445 nm) was measured using an Envision plate reader. The potency measurements for the test compounds were quantified and represented as EC50 (concentration of a compound that gives half-maximal activation) and Emax (fold change of a compound's maximal activation compared to DMSO).

[1] = NMN fluorescence assay, purified human NAMPT 100 nM
[2] = NMN synthesis by purified human NAMPT (100 nM)

T1 sequence (P43490 whole entry): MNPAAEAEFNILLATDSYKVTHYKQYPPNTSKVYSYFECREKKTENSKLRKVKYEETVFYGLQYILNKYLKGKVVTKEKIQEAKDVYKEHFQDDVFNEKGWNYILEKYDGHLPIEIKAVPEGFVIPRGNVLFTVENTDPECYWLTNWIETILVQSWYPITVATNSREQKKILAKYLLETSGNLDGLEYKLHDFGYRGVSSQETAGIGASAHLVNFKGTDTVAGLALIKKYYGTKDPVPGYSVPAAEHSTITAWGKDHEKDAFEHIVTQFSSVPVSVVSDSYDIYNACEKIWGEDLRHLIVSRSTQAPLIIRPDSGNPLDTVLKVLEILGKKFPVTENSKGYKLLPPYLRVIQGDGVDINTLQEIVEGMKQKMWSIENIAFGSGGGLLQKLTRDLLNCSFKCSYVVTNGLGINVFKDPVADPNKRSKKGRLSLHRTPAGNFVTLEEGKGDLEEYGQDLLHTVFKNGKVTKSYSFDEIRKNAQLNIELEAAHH

Row | EC50 [1] | Enzymatic Emax | EC50 [2] | Structure (SMILES)
1 | ≥ 5 µM | C (2≥C) |  | O=C1N[C@H]2CCC(CN3C(=O)c4ccccc4C3Cc3ncccc3Br)C[C@@H]2O1 (relative stereo) [Compound 466, trans-6-((1-((3-bromopyridin-2-yl)methyl)-3-oxoisoindolin-2-yl)methyl)hexahydrobenzo[d]oxazol-2(3H)-one]
2 | 0.5 to 5 µM |  |  | Cn1ncc(Cl)c1CC1c2ccccc2C(=O)N1C[C@@H]1C[C@H]1c1c[nH]nn1 (relative stereo) [Compound 548, trans 2-((2-(1H-1,2,3-triazol-4-yl)cyclopropyl)methyl)-3-((4-chloro-1-methyl-1H-pyrazol-5-yl)methyl)isoindolin-1-one]
3 |  | B (3≥B>2) | ≥ 5 µM | COC1CN(Cc2ccc3c(c2)[C@H](C)N(Cc2ccc4[nH]c(=O)oc4c2)C3=O)C1 (single isomer, unassigned) [Compound 185]
4 |  | B (3≥B>2) | ≥ 5 µM | O=C1COc2ccccc2N1Cc1ccc(O)cc1 [Compound 6, 4-(4-hydroxybenzyl)-2H-benzo[b][1,4]oxazin-3(4H)-one]
5 |  | B (3≥B>2) | ≥ 5 µM | O=C1c2ccccc2CCN1Cc1ccc2[nH]c(=O)oc2c1 [Compound 8, 6-((1-oxo-3,4-dihydroisoquinolin-2(1H)-yl)methyl)benzo[d]oxazol-2(3H)-one]
6 |  | B (3≥B>2) | ≥ 5 µM | O=C1Cc2ccccc2CN1Cc1ccc(O)cc1 [Compound 10, 2-(4-hydroxybenzyl)-1,4-dihydroisoquinolin-3(2H)-one]
7 |  | B (3≥B>2) | ≥ 5 µM | O=c1[nH]n(Cc2ccc(O)cc2)c2ccccc12 [Compound 13, 1-(4-hydroxybenzyl)-1,2-dihydro-3H-indazol-3-one]
8 |  | B (3≥B>2) | 0.5 to 5 µM | O=C1c2cccc(Nc3ccccc3)c2C(=O)N1Cc1ccc(O)cc1 [Compound 17, 2-(4-hydroxybenzyl)-4-(phenylamino)isoindoline-1,3-dione]
9 |  | B (3≥B>2) | 0.5 to 5 µM | CC(C)(C)c1ccc2c(c1)C(=O)N(Cc1ccc(O)cc1)C2=O [Compound 18, 5-(tert-butyl)-2-(4-hydroxybenzyl)isoindoline-1,3-dione]
10 |  | A (A>3) | ≥ 5 µM | CCn1c2ccccc2c(=O)n1Cc1ccc(O)cc1 [Compound 24, 1-ethyl-2-(4-hydroxybenzyl)-1,2-dihydro-3H-indazol-3-one]
11 |  | A (A>3) | ≥ 5 µM | N#CC1c2ccccc2C(=O)N1Cc1ccc(O)cc1 (centres unmarked) [Compound 28, 2-(4-hydroxybenzyl)-3-oxoisoindoline-1-carbonitrile]
12 |  | A (A>3) | 0.5 to 5 µM | COc1ccc2c(c1)C(=O)N(Cc1ccc(O)cc1)C2=O [Compound 30, 2-(4-hydroxybenzyl)-5-methoxyisoindoline-1,3-dione]
13 |  | A (A>3) | ≥ 5 µM | Cc1ccc2c(c1)C(=O)N(Cc1ccc(O)cc1)C2 [Compound 32, 2-(4-hydroxybenzyl)-6-methylisoindolin-1-one]
14 |  | B (3≥B>2) | ≥ 5 µM | CNC(=O)c1ccc2c(c1)C(C)N(Cc1ccc3[nH]c(=O)oc3c1)C2=O (centres unmarked) [Compound 92, N,3-dimethyl-1-oxo-2-((2-oxo-2,3-dihydrobenzo[d]oxazol-6-yl)methyl)isoindoline-5-carboxamide]
15 |  | B (3≥B>2) | 0.5 to 5 µM | Cc1ncccc1CC1c2ccccc2C(=O)N1Cc1ccc2[nH]c(=O)oc2c1 (centres unmarked) [Compound 165, 6-((1-((2-methylpyridin-3-yl)methyl)-3-oxoisoindolin-2-yl)methyl)benzo[d]oxazol-2(3H)-one]
16 |  | C (2≥C) | ≥ 5 µM | N#Cc1cccc(F)c1C[C@@H]1c2ccccc2C(=O)N1Cc1ccc2[nH]c(=O)oc2c1 [Compound 171, (R)-3-fluoro-2-((3-oxo-2-((2-oxo-2,3-dihydrobenzo[d]oxazol-6-yl)methyl)isoindolin-1-yl)methyl)benzonitrile]
17 |  | C (2≥C) | ≥ 5 µM | Cc1cccnc1C[C@@H]1c2ccccc2C(=O)N1Cc1ccc2[nH]c(=O)oc2c1 [Compound 177, (R)-6-((1-((3-methylpyridin-2-yl)methyl)-3-oxoisoindolin-2-yl)methyl)benzo[d]oxazol-2(3H)-one]

Row | EC50 [1] | Enzymatic Emax | EC50 [2] | Structure (SMILES)
18 |  | B (3≥B>2) | ≥ 5 µM | Cc1cc(CC2c3ccccc3C(=O)N2Cc2ccc3[nH]c(=O)oc3c2)ccn1 (centres unmarked) [Compound 179, 6-((1-((2-methylpyridin-4-yl)methyl)-3-oxoisoindolin-2-yl)methyl)benzo[d]oxazol-2(3H)-one]
19 |  | B (3≥B>2) | 0.5 to 5 µM | COc1cccc(CC2c3ccccc3C(=O)N2Cc2ccc3[nH]c(=O)oc3c2)c1 (centres unmarked) [Compound 180, 6-((1-(3-methoxybenzyl)-3-oxoisoindolin-2-yl)methyl)benzo[d]oxazol-2(3H)-one]
20 |  | B (3≥B>2) | ≥ 5 µM | CC(C)c1cccnc1CC1c2ccccc2C(=O)N1Cc1ccc2[nH]c(=O)oc2c1 (centres unmarked) [Compound 181, 6-((1-((3-isopropylpyridin-2-yl)methyl)-3-oxoisoindolin-2-yl)methyl)benzo[d]oxazol-2(3H)-one]
21 |  | B (3≥B>2) | 0.5 to 5 µM | O=C1c2ccccc2C(Cc2cccnc2F)N1Cc1ccc2[nH]c(=O)oc2c1 (centres unmarked) [Compound 183, 6-((1-((2-fluoropyridin-3-yl)methyl)-3-oxoisoindolin-2-yl)methyl)benzo[d]oxazol-2(3H)-one]
22 |  | B (3≥B>2) | 0.5 to 5 µM | O=C1c2ccccc2C(Cc2ncccc2C2CC2)N1Cc1ccc2[nH]c(=O)oc2c1 (centres unmarked) [Compound 184, 6-((1-((3-cyclopropylpyridin-2-yl)methyl)-3-oxoisoindolin-2-yl)methyl)benzo[d]oxazol-2(3H)-one]
23 |  | B (3≥B>2) | 0.5 to 5 µM | O=C1c2ccccc2C(Cc2ccc(F)cn2)N1Cc1ccc2[nH]c(=O)oc2c1 (centres unmarked) [Compound 194, 6-((1-((5-fluoropyridin-2-yl)methyl)-3-oxoisoindolin-2-yl)methyl)benzo[d]oxazol-2(3H)-one]
24 |  | B (3≥B>2) | 0.5 to 5 µM | O=C1c2ccccc2C(Cc2ccc(Cl)cn2)N1Cc1ccc2[nH]c(=O)oc2c1 (centres unmarked) [Compound 196, 6-((1-((5-chloropyridin-2-yl)methyl)-3-oxoisoindolin-2-yl)methyl)benzo[d]oxazol-2(3H)-one]
25 |  | B (3≥B>2) | 0.5 to 5 µM | N#Cc1cccc(CC2c3ccccc3C(=O)N2Cc2ccc3[nH]c(=O)oc3c2)c1F (centres unmarked) [Compound 204, 2-fluoro-3-((3-oxo-2-((2-oxo-2,3-dihydrobenzo[d]oxazol-6-yl)methyl)isoindolin-1-yl)methyl)benzonitrile]
26 |  | B (3≥B>2) | 0.5 to 5 µM | Nc1ccccc1CC1c2ccccc2C(=O)N1Cc1ccc2[nH]c(=O)oc2c1 (centres unmarked) [Compound 208, 6-((1-(2-aminobenzyl)-3-oxoisoindolin-2-yl)methyl)benzo[d]oxazol-2(3H)-one]
27 |  | A (A>3) | 0.5 to 5 µM | COc1ccc(CC2c3ccccc3C(=O)N2Cc2ccc3[nH]c(=O)oc3c2)cc1 (centres unmarked) [Compound 213, 6-((1-(4-methoxybenzyl)-3-oxoisoindolin-2-yl)methyl)benzo[d]oxazol-2(3H)-one]
28 |  | A (A>3) | 0.5 to 5 µM | O=C1c2ccccc2C(Cc2ccc3ncoc3c2)N1Cc1ccc2[nH]c(=O)oc2c1 (centres unmarked) [Compound 216, 6-((1-(benzo[d]oxazol-6-ylmethyl)-3-oxoisoindolin-2-yl)methyl)benzo[d]oxazol-2(3H)-one]
29 |  | A (A>3) | 0.5 to 5 µM | O=C1c2ccccc2C(Cc2cccc3ncoc23)N1Cc1ccc2[nH]c(=O)oc2c1 (centres unmarked) [Compound 218, 6-((1-(benzo[d]oxazol-7-ylmethyl)-3-oxoisoindolin-2-yl)methyl)benzo[d]oxazol-2(3H)-one]
30 |  | B (3≥B>2) | 0.5 to 5 µM | N#Cc1cccc(CC2c3ccccc3C(=O)N2Cc2ccc3[nH]c(=O)oc3c2)n1 (centres unmarked) [Compound 219, 6-((3-oxo-2-((2-oxo-2,3-dihydrobenzo[d]oxazol-6-yl)methyl)isoindolin-1-yl)methyl)picolinonitrile]
31 |  | B (3≥B>2) | 0.5 to 5 µM | O=C1c2ccccc2C(Cc2cc(Cl)ccn2)N1Cc1ccc2[nH]c(=O)oc2c1 (centres unmarked) [Compound 220, 6-((1-((4-chloropyridin-2-yl)methyl)-3-oxoisoindolin-2-yl)methyl)benzo[d]oxazol-2(3H)-one]
32 |  | B (3≥B>2) | ≥ 5 µM | O=C1c2ccccc2C(Cc2ncccc2Br)N1Cc1cnc2[nH]c(=O)oc2c1 (centres unmarked) [Compound 222, 6-((1-((3-bromopyridin-2-yl)methyl)-3-oxoisoindolin-2-yl)methyl)oxazolo[4,5-b]pyridin-2(3H)-one]
33 |  | B (3≥B>2) | ≥ 5 µM | O=C1c2ccccc2C(CC2CCOCC2)N1Cc1ccc2[nH]c(=O)oc2c1 (centres unmarked) [Compound 226, 6-((1-oxo-3-((tetrahydro-2H-pyran-4-yl)methyl)isoindolin-2-yl)methyl)benzo[d]oxazol-2(3H)-one]
